Experimental data: PubChem BioAssay AID2060502 (Molecular Pharmacology Branch, DTP, NCI, 2025)

Test system: 885724-159-R-J1-PDC complex spheroid viability
Test: Anticancer human tumor 885724-159-R-J1-PDC patient-derived pancreatic adenocarcinoma cell line growth inhibition [GQUAD]
Settings: for IC50: curve of first compound; for viability, T/C: stronger effect = lower value; active means viability on the fitted dose curve at most 10% of control; inactive means the rest
How it was run: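 Tumor cells were grown as complex spheroids with HUVEC endothelial cells and mesenchymal stem cells as stroma. G-quadruplex stabilizers were combined with targeted agents over half-log dilutions from near the clinical Cmax, or from 10 microM.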

[1] = second compound 0.0316 µM, first compound 0.0316 µM
[2] = second compound 0.0316 µM, first compound 0.1 µM
[3] = second compound 0.0316 µM, first compound 0.316 µM
[4] = second compound 0.0316 µM, first compound 1 µM
[5] = second compound 0.0316 µM, first compound 3.16 µM
[6] = second compound 0.0316 µM, first compound 10 µM
[7] = second compound 0.1 µM, first compound 0.0316 µM
[8] = second compound 0.1 µM, first compound 0.1 µM
[9] = second compound 0.1 µM, first compound 0.316 µM
[10] = second compound 0.1 µM, first compound 1 µM
[11] = second compound 0.1 µM, first compound 3.16 µM
[12] = second compound 0.1 µM, first compound 10 µM
[13] = second compound 0.316 µM, first compound 0.0316 µM
[14] = second compound 0.316 µM, first compound 0.1 µM
[15] = second compound 0.316 µM, first compound 0.316 µM
[16] = second compound 0.316 µM, first compound 1 µM
[17] = second compound 0.316 µM, first compound 3.16 µM
[18] = second compound 0.316 µM, first compound 10 µM
[19] = second compound 1 µM, first compound 0.0316 µM
[20] = second compound 1 µM, first compound 0.1 µM
[21] = second compound 1 µM, first compound 0.316 µM
[22] = second compound 1 µM, first compound 1 µM
[23] = second compound 1 µM, first compound 3.16 µM
[24] = second compound 1 µM, first compound 10 µM
[25] = second compound 3.16 µM, first compound 0.0316 µM
[26] = second compound 3.16 µM, first compound 0.1 µM
[27] = second compound 3.16 µM, first compound 0.316 µM
[28] = second compound 3.16 µM, first compound 1 µM
[29] = second compound 3.16 µM, first compound 3.16 µM
[30] = second compound 3.16 µM, first compound 10 µM
[31] = second compound 10 µM, first compound 0.0316 µM
[32] = second compound 10 µM, first compound 0.1 µM
[33] = second compound 10 µM, first compound 0.316 µM
[34] = second compound 10 µM, first compound 1 µM
[35] = second compound 10 µM, first compound 3.16 µM
[36] = second compound 10 µM, first compound 10 µM
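Further: spheroids exposed to agents for seven days before readout.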
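Wherever viability, T/C is given: percent of vehicle control viability where 100% = DMSO wells.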

C#Cc1c(F)ccc2cc(O)cc(-c3ncc4c(N5CC6CCC(C5)N6)nc(OCC56CCCN5CC(F)C6)nc4c3F)c12 (centres undefined) + Cc1cnc(CNC(=O)c2c(=O)c3ccc(N4CCCN(C)CC4)nc3n3c2sc2ccccc23)cn1
4.5 µM: IC50 (second compound 1 µM)
active: viability, T/C [36] 1.29%
6.88 µM: IC50 (second compound 0.1 µM)
inactive: viability, T/C [1] 91.6% | viability, T/C [2] 120% | viability, T/C [3] 117% | viability, T/C [4] 103% | viability, T/C [5] 67% | viability, T/C [6] 36.6% | viability, T/C [7] 106% | viability, T/C [8] 110% | viability, T/C [9] 100% | viability, T/C [10] 107% | viability, T/C [11] 71.4% | viability, T/C [12] 39.7% | viability, T/C [13] 110% | viability, T/C [14] 100% | viability, T/C [15] 90.8% | viability, T/C [16] 94.5% | viability, T/C [17] 69.5% | viability, T/C [18] 35% | viability, T/C [19] 92.8% | viability, T/C [20] 81.3% | viability, T/C [21] 84.2% | viability, T/C [22] 75.3% | viability, T/C [23] 59.9% | viability, T/C [24] 28.4% | viability, T/C [25] 77.3% | viability, T/C [26] 70.2% | viability, T/C [27] 70% | viability, T/C [28] 62.9% | viability, T/C [29] 45.3% | viability, T/C [30] 19.1% | viability, T/C [31] 61.5% | viability, T/C [32] 62.7% | viability, T/C [33] 54.6% | viability, T/C [34] 55.8% | viability, T/C [35] 36.6%
2.33 µM: IC50 (second compound 3.16 µM)
6.19 µM: IC50 (second compound 0.316 µM)
1.28 µM: IC50 (second compound 10 µM)
6.01 µM: IC50 (second compound 0.0316 µM)

CC(=O)O[C@H]1C(=O)[C@@]2(C)[C@H]([C@H](OC(=O)c3ccccc3)[C@]3(O)C[C@H](OC(=O)[C@H](O)[C@@H](NC(=O)c4ccccc4)c4ccccc4)C(C)=C1C3(C)C)[C@]1(OC(C)=O)CO[C@@H]1C[C@@H]2O + Cc1cnc(CNC(=O)c2c(=O)c3ccc(N4CCCN(C)CC4)nc3n3c2sc2ccccc23)cn1
> 10 µM: IC50 (second compound 0.0316 µM) | IC50 (second compound 0.1 µM) | IC50 (second compound 0.316 µM) | IC50 (second compound 1 µM) | IC50 (second compound 3.16 µM) | IC50 (second compound 10 µM)
inactive: viability, T/C [1] 103% | viability, T/C [2] 97.3% | viability, T/C [3] 96.9% | viability, T/C [4] 108% | viability, T/C [5] 104% | viability, T/C [6] 107% | viability, T/C [7] 111% | viability, T/C [8] 105% | viability, T/C [9] 99.3% | viability, T/C [10] 119% | viability, T/C [11] 113% | viability, T/C [12] 108% | viability, T/C [13] 110% | viability, T/C [14] 114% | viability, T/C [15] 107% | viability, T/C [16] 88.7% | viability, T/C [17] 118% | viability, T/C [18] 105% | viability, T/C [19] 95.9% | viability, T/C [20] 93.3% | viability, T/C [21] 98.9% | viability, T/C [22] 93.6% | viability, T/C [23] 106% | viability, T/C [24] 86% | viability, T/C [25] 77% | viability, T/C [26] 78.6% | viability, T/C [27] 84.9% | viability, T/C [28] 79.5% | viability, T/C [29] 88.8% | viability, T/C [30] 99.6% | viability, T/C [31] 66% | viability, T/C [32] 68.7% | viability, T/C [33] 78.4% | viability, T/C [34] 78.8% | viability, T/C [35] 74.1% | viability, T/C [36] 70.1%
